From ChEMBL document CHEMBL3232809, “Synthesis, antibiotic activity and structure-activity relationship study of some 3-enaminetetramic acids” (2014)
In brackets after ≈: the same amount, converted by molar mass.

System: Streptococcus pneumoniae
Test: Antimicrobial activity against penicillin- and erythromycin-resistant Streptococcus pneumoniae
Format: functional

Structure (SMILES)	MIC [µg/mL]
CCOC(=O)[C@]12CO[C@H](C(C)(C)C)N1C(=O)/C(=C(/CC(F)(F)C(F)(F)C(F)(F)C(F)(F)C(F)(F)F)NCCCN1CCOCC1)C2=O	8 (≈ 11.3 µM)
O=C(O)c1cn(C2CC2)c2cc(N3CCNCC3)c(F)cc2c1=O [CIPROFLOXACIN]	1 (≈ 3.02 µM)

System: Streptococcus pneumoniae
Test: Antimicrobial activity against penicillin- and erythromycin-resistant Streptococcus pneumoniae in presence of 2.5% horse blood
Format: functional

Structure (SMILES)	MIC [µg/mL]
CCOC(=O)[C@]12CO[C@H](C(C)(C)C)N1C(=O)/C(=C(/CC(F)(F)C(F)(F)C(F)(F)C(F)(F)C(F)(F)F)NCCCN1CCOCC1)C2=O	16
O=C(O)c1cn(C2CC2)c2cc(N3CCNCC3)c(F)cc2c1=O [CIPROFLOXACIN]	1

System: Staphylococcus aureus
Test: Antimicrobial activity against methicillin-sensitive Staphylococcus aureus ATCC 13709
Format: functional

Structure (SMILES)	MIC [µg/mL]
CCOC(=O)[C@]12CO[C@H](C(C)(C)C)N1C(=O)/C(=C(/CC(F)(F)C(F)(F)C(F)(F)C(F)(F)C(F)(F)F)NCCCN1CCOCC1)C2=O	32 (≈ 45.4 µM)
O=C(O)c1cn(C2CC2)c2cc(N3CCNCC3)c(F)cc2c1=O [CIPROFLOXACIN]	0.12 (≈ 0.362 µM)

System: Staphylococcus aureus
Test: Antimicrobial activity against vancomycin-susceptible Staphylococcus aureus ATCC 25923
Format: functional

Structure (SMILES)	MIC [µg/mL]
CCOC(=O)[C@]12CO[C@H](C(C)(C)C)N1C(=O)/C(=C(/CC(F)(F)C(F)(F)C(F)(F)C(F)(F)C(F)(F)F)NCCCN1CCOCC1)C2=O	16 (≈ 22.7 µM)
O=C(O)c1cn(C2CC2)c2cc(N3CCNCC3)c(F)cc2c1=O [CIPROFLOXACIN]	0.5 (≈ 1.51 µM)

System: Staphylococcus aureus
Test: Antimicrobial activity against Staphylococcus aureus Oxford
Format: functional

Structure (SMILES)	MIC [µg/mL]
CCOC(=O)[C@]12CO[C@H](C(C)(C)C)N1C(=O)/C(=C(/CC(F)(F)C(F)(F)C(F)(F)C(F)(F)C(F)(F)F)NCCCN1CCOCC1)C2=O	16 (≈ 22.7 µM)
O=C(O)c1cn(C2CC2)c2cc(N3CCNCC3)c(F)cc2c1=O [CIPROFLOXACIN]	0.12 (≈ 0.362 µM)

System: Staphylococcus aureus
Test: Antimicrobial activity against methicillin-resistant Staphylococcus aureus
Format: functional

Structure (SMILES)	MIC [µg/mL]
CCOC(=O)[C@]12CO[C@H](C(C)(C)C)N1C(=O)/C(=C(/CC(F)(F)C(F)(F)C(F)(F)C(F)(F)C(F)(F)F)NCCCN1CCOCC1)C2=O	32 (≈ 45.4 µM)

System: Enterococcus faecalis
Test: Antimicrobial activity against vancomycin-susceptible Enterococcus faecalis ATCC 29212
Format: functional

Structure (SMILES)	MIC [µg/mL]
CCOC(=O)[C@]12CO[C@H](C(C)(C)C)N1C(=O)/C(=C(/CC(F)(F)C(F)(F)C(F)(F)C(F)(F)C(F)(F)F)NCCCN1CCOCC1)C2=O	32 (≈ 45.4 µM)
O=C(O)c1cn(C2CC2)c2cc(N3CCNCC3)c(F)cc2c1=O [CIPROFLOXACIN]	1 (≈ 3.02 µM)

System: Enterococcus faecium
Test: Antimicrobial activity against vancomycin-resistant Enterococcus faecium
Format: functional

Structure (SMILES)	MIC [µg/mL]
CCOC(=O)[C@]12CO[C@H](C(C)(C)C)N1C(=O)/C(=C(/CC(F)(F)C(F)(F)C(F)(F)C(F)(F)C(F)(F)F)NCCCN1CCOCC1)C2=O	16 (≈ 22.7 µM)
O=C(O)c1cn(C2CC2)c2cc(N3CCNCC3)c(F)cc2c1=O [CIPROFLOXACIN]	32 (≈ 96.6 µM)
CC(=O)NC[C@H]1CN(c2ccc(N3CCOCC3)c(F)c2)C(=O)O1 [LINEZOLID]	2 (≈ 5.93 µM)

System: Streptococcus pneumoniae
Test: Antimicrobial activity against erythromycin-susceptible Streptococcus pneumoniae ATCC 49619
Format: functional

Structure (SMILES)	MIC [µg/mL]
CCOC(=O)[C@]12CO[C@H](C(C)(C)C)N1C(=O)/C(=C(/CC(F)(F)C(F)(F)C(F)(F)C(F)(F)C(F)(F)F)NCCCN1CCOCC1)C2=O	16 (≈ 22.7 µM)
O=C(O)c1cn(C2CC2)c2cc(N3CCNCC3)c(F)cc2c1=O [CIPROFLOXACIN]	1 (≈ 3.02 µM)

System: Haemophilus influenzae
Test: Antimicrobial activity against Haemophilus influenzae ATCC 31517 MMSA
Format: functional

Structure (SMILES)	MIC [µg/mL]
CCOC(=O)[C@]12CO[C@H](C(C)(C)C)N1C(=O)/C(=C(/CC(F)(F)C(F)(F)C(F)(F)C(F)(F)C(F)(F)F)NCCCN1CCOCC1)C2=O	> 64
O=C(O)c1cn(C2CC2)c2cc(N3CCNCC3)c(F)cc2c1=O [CIPROFLOXACIN]	0.5 (≈ 1.51 µM)
CC(=O)NC[C@H]1CN(c2ccc(N3CCOCC3)c(F)c2)C(=O)O1 [LINEZOLID]	16 (≈ 47.4 µM)

System: Haemophilus influenzae
Test: Antimicrobial activity against LS2 Efflux knock-out Haemophilus influenzae
Format: functional

Structure (SMILES)	MIC [µg/mL]
CCOC(=O)[C@]12CO[C@H](C(C)(C)C)N1C(=O)/C(=C(/CC(F)(F)C(F)(F)C(F)(F)C(F)(F)C(F)(F)F)NCCCN1CCOCC1)C2=O	8 (≈ 11.3 µM)
O=C(O)c1cn(C2CC2)c2cc(N3CCNCC3)c(F)cc2c1=O [CIPROFLOXACIN]	≤ 0.06
CC(=O)NC[C@H]1CN(c2ccc(N3CCOCC3)c(F)c2)C(=O)O1 [LINEZOLID]	4 (≈ 11.9 µM)

System: Escherichia coli
Test: Antimicrobial activity against Escherichia coli ATCC 25922
Format: functional

Structure (SMILES)	MIC [µg/mL]
CCOC(=O)[C@]12CO[C@H](C(C)(C)C)N1C(=O)/C(=C(/CC(F)(F)C(F)(F)C(F)(F)C(F)(F)C(F)(F)F)NCCCN1CCOCC1)C2=O	> 32

System: Escherichia coli
Test: Antimicrobial activity against Escherichia coli 50
Format: functional

Structure (SMILES)	MIC [µg/mL]
CCOC(=O)[C@]12CO[C@H](C(C)(C)C)N1C(=O)/C(=C(/CC(F)(F)C(F)(F)C(F)(F)C(F)(F)C(F)(F)F)NCCCN1CCOCC1)C2=O	> 32

System: Pseudomonas aeruginosa
Test: Antimicrobial activity against Pseudomonas aeruginosa ATCC 27853
Format: functional

Structure (SMILES)	MIC [µg/mL]
CCOC(=O)[C@]12CO[C@H](C(C)(C)C)N1C(=O)/C(=C(/CC(F)(F)C(F)(F)C(F)(F)C(F)(F)C(F)(F)F)NCCCN1CCOCC1)C2=O	> 32

System: Escherichia coli
Test: Antimicrobial activity against Escherichia coli 49
Format: functional

Structure (SMILES)	MIC [µg/mL]
CCOC(=O)[C@]12CO[C@H](C(C)(C)C)N1C(=O)/C(=C(/CC(F)(F)C(F)(F)C(F)(F)C(F)(F)C(F)(F)F)NCCCN1CCOCC1)C2=O	> 32
